The source of these data is BindingDB's records for doi:10.1021/jm00384a016 (1987).

The assay concerns the target T1, Adenosine receptor A1 (Rattus norvegicus, UniProt P25099).
T1 sequence (P25099 whole entry): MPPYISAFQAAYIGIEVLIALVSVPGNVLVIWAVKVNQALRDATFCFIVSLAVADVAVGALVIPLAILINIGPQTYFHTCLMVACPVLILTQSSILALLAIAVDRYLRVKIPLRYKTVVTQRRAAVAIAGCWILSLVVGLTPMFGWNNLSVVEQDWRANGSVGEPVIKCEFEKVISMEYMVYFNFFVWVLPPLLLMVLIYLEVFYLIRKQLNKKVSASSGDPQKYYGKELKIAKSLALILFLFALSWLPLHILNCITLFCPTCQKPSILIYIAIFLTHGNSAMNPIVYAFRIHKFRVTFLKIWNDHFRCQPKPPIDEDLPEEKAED
In words: Binding affinity against adenosine A1 receptor in rat brain membrane using N6-[3H]cyclohexyladenosine.

One may read the Ki as a dissociation constant, usually derived from enzyme kinetics or from competition with a known ligand. A low value points to a stronger hold on the target. `CC(Sc1nc(SC(C)C(N)=O)c2cnn(-c3ccccc3)c2n1)C(N)=O` (stereo unspecified) [2-[6-(1-Carbamoyl-ethylsulfanyl)-1-phenyl-1H-pyrazolo[3,4-d]pyrimidin-4-ylsulfanyl]-propionamide] showed a Ki of 370 nM.
